Paper PMC8841437 (Clinical and Translational Science, 2021)

Key:
[1] = test system: activated partial thromboplastin time (aPTT); experiment: Activated partial thromboplastin time; type: in vivo, human
[2] = Urinary excretion of milvexian; type: in vivo, human
prothrombin time = experiment: Prothrombin time, ex vivo pharmacodynamics; type: in vivo, human; conditions: SAD and MAD panels; data not shown
Multiple ascending dose = conditions: for Tmax: median (min-max)
[3] = test system: arterial and venous thrombosis; conditions: preclinical models of arterial and venous thrombosis; cited from earlier work
healthy participants = experiment: Safety and tolerability; type: in vivo, human; conditions: for Abdominal discomfort (TEAE) / Abdominal pain (TEAE) / Any TEAE / Diarrhea (TEAE) / Dizziness (TEAE) / Headache (TEAE) / Nausea (TEAE) / Oropharyngeal pain (TEAE) / Pain in extremity (TEAE): n = 6
[4] = MAD panel 10, 200 mg q.d. fasted

## C[C@@H]1CCC[C@H](n2cnc(-c3cc(Cl)ccc3-n3cc(Cl)nn3)cc2=O)c2cc(ccn2)-c2c(cnn2C(F)F)NC1=O [milvexian]
[1]; fasted SAD panel 4 mg
  maximal mean percent increase from baseline in aPTT: 11.9%
[1]; fasted SAD panel 20 mg
  maximal mean percent increase from baseline in aPTT: 36.7%
[1]; fasted SAD panel 60 mg
  maximal mean percent increase from baseline in aPTT: 85.2%
[1]; fasted SAD panel 200 mg
  maximal mean percent increase from baseline in aPTT: 147.1%
[1]; fasted SAD panel 300 mg
  maximal mean percent increase from baseline in aPTT: 140.8%
[1]; fasted SAD panel 500 mg
  maximal mean percent increase from baseline in aPTT: 188.3%
[2]; MAD panel 9, 70 mg q.d., day 1
  mean total amount excreted in urine from 0 to 24 h postdose: 14.8 % of the administered dose
[2]; MAD panel 9, 70 mg q.d., day 14
  mean total amount excreted in urine from 0 to 24 h postdose: 17.3 % of the administered dose
[2]; MAD panel 10, 200 mg q.d., day 1
  mean total amount excreted in urine from 0 to 24 h postdose: 10.4 % of the administered dose
[2]; MAD panel 10, 200 mg q.d., day 14
  mean total amount excreted in urine from 0 to 24 h postdose: 14.1 % of the administered dose
[2]; all panels
  Renal excretion: less than 20%
Prothrombin time
  Prothrombin time: not increased at any time
Multiple ascending dose; MAD 5-mg q.d. panel, visual inspection of trough concentrations
  time to steady-state plasma concentration: 1 dosing day
Multiple ascending dose; MAD day 14, 5-500 mg
  dose proportionality of increases in exposure: greater than dose‐proportional
Multiple ascending dose; MAD, once-daily dosing
  time to steady-state plasma concentration: ≤ 3 dosing days
Multiple ascending dose; human, in vivo, 5 mg, AUC(0‐T), MAD panel 7, 5 mg q.d. fasted, day 14, n = 5, geometric mean (geometric CV%)
  AUC: 146 ng·h/mL
Multiple ascending dose; human, in vivo, 5 mg, AUC(TAU), MAD panel 7, 5 mg q.d. fasted, day 14, n = 5, geometric mean (geometric CV%)
  AUC: 146 ng·h/mL
Multiple ascending dose; human, in vivo, 5 mg, Cmax, MAD panel 7, 5 mg q.d. fasted, day 14, n = 5, geometric mean (geometric CV%)
  Cmax at 14 days: 14.8 ng/mL
Multiple ascending dose; human, in vivo, 5 mg, MAD panel 7, 5 mg q.d. fasted, day 14, n = 5
  Tmax: 2.03 h
Multiple ascending dose; human, in vivo, 20 mg, AUC(0‐T), MAD panel 8, 20 mg q.d. fasted, day 14, n = 6, geometric mean (geometric CV%)
  AUC: 1660 ng·h/mL
Multiple ascending dose; human, in vivo, 20 mg, AUC(TAU), MAD panel 8, 20 mg q.d. fasted, day 14, n = 6, geometric mean (geometric CV%)
  AUC: 1370 ng·h/mL
Multiple ascending dose; human, in vivo, 20 mg, Cmax, MAD panel 8, 20 mg q.d. fasted, day 14, n = 6, geometric mean (geometric CV%)
  Cmax at 14 days: 171 ng/mL
Multiple ascending dose; human, in vivo, 20 mg, MAD panel 8, 20 mg q.d. fasted, day 14, n = 6
  Tmax: 2.5 h
Multiple ascending dose; human, in vivo, 70 mg, AUC(TAU), MAD panel 9, 70 mg q.d. fasted, day 14, n = 5, geometric mean (geometric CV%)
  AUC: 4220 ng·h/mL
Multiple ascending dose; human, in vivo, 70 mg, Cmax, MAD panel 9, 70 mg q.d. fasted, day 14, n = 5, geometric mean (geometric CV%)
  Cmax at 14 days: 434 ng/mL
Multiple ascending dose; human, in vivo, 70 mg, MAD panel 9, 70 mg q.d. fasted, day 14, n = 5
  Tmax: 3 h
Multiple ascending dose; human, in vivo, 200 mg, AUC(0‐T), MAD panel 10, 200 mg q.d. fasted, day 14, n = 6, geometric mean (geometric CV%)
  AUC: 18900 ng·h/mL
Multiple ascending dose; human, in vivo, 200 mg, AUC(TAU), MAD panel 10, 200 mg q.d. fasted, day 14, n = 6, geometric mean (geometric CV%)
  AUC: 14600 ng·h/mL
Multiple ascending dose; human, in vivo, 200 mg, Cmax, MAD panel 10, 200 mg q.d. fasted, day 14, n = 6, geometric mean (geometric CV%)
  Cmax at 14 days: 1510 ng/mL
Multiple ascending dose; human, in vivo, 200 mg, MAD panel 10, 200 mg q.d. fasted, day 14, n = 6
  Tmax: 3.5 h
Multiple ascending dose; human, in vivo, 500 mg, AUC(0‐T), MAD panel 11, 500 mg q.d. fed, day 14, n = 6, geometric mean (geometric CV%)
  AUC: 142000 ng·h/mL
Multiple ascending dose; human, in vivo, 500 mg, AUC(TAU), MAD panel 11, 500 mg q.d. fed, day 14, n = 6, geometric mean (geometric CV%)
  AUC: 95100 ng·h/mL
Multiple ascending dose; human, in vivo, 500 mg, Cmax, MAD panel 11, 500 mg q.d. fed, day 14, n = 6, geometric mean (geometric CV%)
  Cmax: 7600 ng/mL
Multiple ascending dose; human, in vivo, 500 mg, MAD panel 11, 500 mg q.d. fed, day 14, n = 6
  Tmax: 4 h
Multiple ascending dose; human, in vivo, mean T1/2, range across MAD panels, MAD
  half-life: 11.4 to 18.1 h
[3]
  antithrombotic activity: antithrombotic activity while preserving homeostasis
Healthy participants; MAD 5-mg q.d. group
  epistaxis: one participant
Healthy participants; MAD 5-mg q.d. group, considered treatment-related, mild
  gingival bleeding: one participant
Healthy participants; MAD 70-mg q.d. group, considered treatment-related, mild
  petechia: one participant
Healthy participants; MAD panel 7, 5 mg q.d. fasted
  Abdominal discomfort (TEAE): 1 (16.7) n (%)
  Abdominal pain (TEAE): 0 n (%)
  Any TEAE: 4 (66.7) n (%)
  Diarrhea (TEAE): 1 (16.7) n (%)
  Dizziness (TEAE): 0 n (%)
  Headache (TEAE): 2 (33.3) n (%)
  Nausea (TEAE): 0 n (%)
  Oropharyngeal pain (TEAE): 0 n (%)
  Pain in extremity (TEAE): 0 n (%)
Healthy participants; MAD panel 7, after one dose of 5 mg
  discontinuation of treatment because of an AE (macular rash): one participant
Healthy participants; MAD panel 8, 20 mg q.d. fasted
  Abdominal discomfort (TEAE): 0 n (%)
  Abdominal pain (TEAE): 0 n (%)
  Any TEAE: 1 (16.7) n (%)
  Diarrhea (TEAE): 0 n (%)
  Dizziness (TEAE): 0 n (%)
  Headache (TEAE): 1 (16.7) n (%)
  Nausea (TEAE): 0 n (%)
  Oropharyngeal pain (TEAE): 0 n (%)
  Pain in extremity (TEAE): 0 n (%)
Healthy participants; MAD panel 9, 70 mg q.d. fasted
  Abdominal discomfort (TEAE): 1 (16.7) n (%)
  Abdominal pain (TEAE): 1 (16.7) n (%)
  Any TEAE: 5 (83.3) n (%)
  Diarrhea (TEAE): 3 (50.0) n (%)
  Dizziness (TEAE): 1 (16.7) n (%)
  Headache (TEAE): 2 (33.3) n (%)
  Nausea (TEAE): 1 (16.7) n (%)
  Oropharyngeal pain (TEAE): 0 n (%)
  Pain in extremity (TEAE): 1 (16.7) n (%)
Healthy participants; [4]
  Abdominal discomfort (TEAE): 0 n (%)
  Abdominal pain (TEAE): 1 (16.7) n (%)
  Any TEAE: 4 (66.7) n (%)
